Measured values as given in US10653747B2, “ApoE mimetic peptides and higher potency to clear plasma cholesterol” (UAB RESEARCH FOUNDATION, priority 2014, dated 2020).
Ahx = NCCCCCC(=O)O

Tests used:
plasma cholesterol = test: Plasma cholesterol reduction in apoE null mice after a single dose; type: in vivo; details: single dose in saline vehicle, at both 50 and 100 μg/mouse
Description: The study was carried out in apoE null mice (n=4 animals/group). The time points show the plasma cholesterol levels at the indicated times following a single dose administration. A single dose was administered using a saline vehicle.

cells = test: Uptake and degradation of peptide-associated VLDL by cells; type: cell-based; details: peptide-associated VLDL compared to VLDL alone, in the absence of apoE
From the text: (§1) To test the hypothesis that a minimal arginine-rich Apo E receptor binding domain (141-150) was sufficient to enhance low density lipoprotein (LDL) and very low density lipoprotein (VLDL) uptake and clearance when covalently linked to a class A amphipathic helix, a peptide was synthesized in which the receptor binding domain of human Apo E, LRKLRKRLLR (SEQ ID NO:4) (hApo E[141-150] also referred to as “hE”), was linked to 18A, a well characterized high affinity lipid-associating peptide (DWLKAFYDKVAEKLKEAF (SEQ ID NO:5), also referred to as “18A”) to produce a peptide denoted as hApo E[141-150]-18A (also referred to as “hE-18A”) (see U.S. Pat. No. 6,506,880, which is hereby incorporated by reference in its entirety for its teaching of specific Apo E mimetics and their uses). Also synthesized was an end protected analog of hE-18A, denoted Ac-hE18A-NH2. […] The effect of the dual character peptides on the uptake and degradation of human LDL/VLDL by cells was then determined.
(§2) It was determined that in MEF 1 cells with induced LDL receptors, LDL internalization was enhanced three, five and seven times by Ac-mE-18A-NH2, Ac-hE-18A-NH2, and Ac-hE(R)-18A-NH2 respectively. […]

VLDL = test: Interaction of peptide with VLDL, displacement of apo E from VLDL
Description: It was determined that in MEF 1 cells with induced LDL receptors, LDL internalization was enhanced three, five and seven times by Ac-mE-18A-NH2, Ac-hE-18A-NH2, and Ac-hE(R)-18A-NH2 respectively. All three peptides increased degradation of LDL by 100 percent. […] However, only Ac-hE-18A-NH2-associated VLDL enhanced the uptake of VLDL six fold and degradation three fold compared to VLDL alone in spite of the absence of apoE. The LDL binding to fibroblasts in the presence of these peptides was not saturable, however, over the LDL concentration range studied.

[1] = tested on: MEF 1 cells with induced LDL receptors; test: Uptake and degradation of human LDL by cells (LDL internalization, LDL degradation); type: cell-based
From the text: as §1, §2

Substance	reducing plasma cholesterol (plasma cholesterol)	enhanced degradation of VLDL (cells)	enhanced uptake of VLDL (cells)	displacement of apo E from VLDL (VLDL)	LDL internalization enhanced [1]	increased degradation of LDL [1]
Ac-Aha-LRRLRRRLLR-DWLKAFYDKVAEKLKEAF-NH2 ({Ac-Ahx}-LRRLRRRLLRDWLKAFYDKVAEKLKEAF-NH2; SMILES CC(=O)NCCCCCC(=O)N[C@@H](CC(C)C)C(=O)N[C@@H](CCCNC(=N)N)C(=O)N[C@@H](CCCNC(=N)N)C(=O)N[C@@H](CC(C)C)C(=O)N[C@@H](CCCNC(=N)N)C(=O)N[C@@H](CCCNC(=N)N)C(=O)N[C@@H](CCCNC(=N)N)C(=O)N[C@@H](CC(C)C)C(=O)N[C@@H](CC(C)C)C(=O)N[C@@H](CCCNC(=N)N)C(=O)N[C@@H](CC(=O)O)C(=O)N[C@@H](Cc1c[nH]c2ccccc12)C(=O)N[C@@H](CC(C)C)C(=O)N[C@@H](CCCCN)C(=O)N[C@@H](C)C(=O)N[C@@H](Cc1ccccc1)C(=O)N[C@@H](Cc1ccc(O)cc1)C(=O)N[C@@H](CC(=O)O)C(=O)N[C@@H](CCCCN)C(=O)N[C@H](C(=O)N[C@@H](C)C(=O)N[C@@H](CCC(=O)O)C(=O)N[C@@H](CCCCN)C(=O)N[C@@H](CC(C)C)C(=O)N[C@@H](CCCCN)C(=O)N[C@@H](CCC(=O)O)C(=O)N[C@@H](C)C(=O)N[C@@H](Cc1ccccc1)C(N)=O)C(C)C) [AC-Aha-[R]hE18A-NH2]	highly effective					
Ac-LRKLRKRLLRDWLKAFYDKVAEKLKEAF-NH2 [Ac-hE-18A-NH2]		three	six	interacted with VLDL to cause a displacement of apo E from VLDL	five	100%
Ac-D-W-L-K-A-F-Y-D-K-V-A-E-K-L-K-E-A-F-NH2 (Ac-DWLKAFYDKVAEKLKEAF-NH2) [Ac-18A-NH2, control peptide; 18A is the lipid-associating peptide …, reference compound]				interacted with VLDL to cause a displacement of apo E from VLDL		
